Experimental data: PubChem BioAssay (NCI)
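The compound was tested at five concentrations on cells cultured in 96-well plates, with a 48-hour exposure period. TGI marks complete inhibition of growth.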

Legend:
Assay in all cases: NCI tumour cell line growth inhibition, 48 h
HCT-15 colon = system: HCT-15 colon
HL-60(TB) leukemia = system: HL-60(TB) leukemia
HOP-92 NSCLC = system: HOP-92 NSCLC
HT29 colon = system: HT29 colon
K-562 leukemia = system: K-562 leukemia
M14 melanoma = system: M14 melanoma
MALME-3M melanoma = system: MALME-3M melanoma
NCI-H226 lung = system: NCI-H226 lung
SK-MEL-2 melanoma = system: SK-MEL-2 melanoma
SK-OV-3 ovarian = system: SK-OV-3 ovarian
UO-31 renal = system: UO-31 renal
HOP-62 NSCLC = system: HOP-62 NSCLC

| SMILES | TGI (HCT-15 colon) [µM] | TGI (HL-60(TB) leukemia) [µM] | TGI (HOP-92 NSCLC) [µM] | TGI (HT29 colon) [µM] | TGI (K-562 leukemia) [µM] | TGI (M14 melanoma) [µM] | TGI (MALME-3M melanoma) [µM] | TGI (NCI-H226 lung) [µM] | TGI (SK-MEL-2 melanoma) [µM] | TGI (SK-OV-3 ovarian) [µM] | TGI (UO-31 renal) [µM] | TGI (HOP-62 NSCLC) [µM] |
| --- | --- | --- | --- | --- | --- | --- | --- | --- | --- | --- | --- | --- |
| Cc1nc2c(c(N3CCN(C)CC3)n1)Cc1ccccc1-2 | > 100 | > 100 | > 100 | > 100 | > 100 | > 100 | > 100 | > 100 | > 100 | > 100 | 62.8 |  |
| COC(=O)c1cc2c(c(C(=O)OC)c1)CCC2 | > 100 | > 100 | > 100 | > 100 | > 100 | > 100 | > 100 |  | > 100 | > 100 | > 100 | > 100 |
| COC(NC(=O)Nc1ccc(C)cc1)(C(F)(F)F)C(F)(F)F |  | > 100 | 93.3 | > 100 | > 100 | > 100 | > 100 | > 100 |  | 76.4 | 53.6 | > 100 |
| Nc1ncnc2c1ncn2[C@H]1C=C[C@@H](NO)C1 | > 100 |  | > 100 |  | > 100 | > 100 | > 100 | > 100 | > 100 | > 100 | > 100 | > 100 |
| COc1ccc(/C=N\N(C)Cc2cccc3ccsc23)cc1 | > 100 | > 100 | > 100 | > 100 | > 100 | > 100 | > 100 | > 100 |  | > 100 | > 100 | > 100 |
| Cc1c(NC(=S)Nc2ccc([N+](=O)[O-])cc2)c(=O)n(-c2ccccc2)n1C | > 100 | > 100 | > 100 | > 100 | > 100 | > 100 | > 100 | > 100 |  | > 100 | > 100 | > 100 |
| O=c1[nH]c(Nc2ccc(Br)c(C(F)(F)F)c2)nc2nc[nH]c12 | > 100 | > 100 | > 100 | > 100 |  | > 100 | > 100 | > 100 | 44.4 | > 100 | 77.4 | > 100 |
| O=C1C(Cl)=C(Cl)C(=O)C(CCNc2nccs2)=C1Cl | 43.7 | > 100 | 58.2 | > 100 | > 100 | 42 | 46.6 |  | 75.6 | > 100 | 46.4 | > 100 |
| COC(=O)C(Cc1c[nH]c2ccccc12)NC(=O)C(Cc1cnc[nH]1)NC(=O)C1CCC(=O)N1C(=O)OCc1ccccc1 (stereo unspecified) |  | > 100 | > 100 | > 100 | > 100 | > 100 | > 100 | > 100 | > 100 |  | > 100 | > 100 |
| NCC(=O)Nc1ccccc1 | > 100 |  | > 100 | > 100 | > 100 | > 100 | > 100 | > 100 | > 100 |  | > 100 | > 100 |
